The numbers were not newly measured in publication PMC6108082 (Journal of medicinal chemistry, 2018), which cites them from elsewhere.

This data set relates to P-glycoprotein.

Regarding `CCCc1ccc(-c2ccc(N(C[C@@H](N)[C@@H](C)CC)C(=O)[C@@H]3C[C@H]3c3ccccn3)cc2)cc1.Cl` [compound 1, 2-PCCA], the P-glycoprotein substrate activity result is on record as “substrate of P-glycoprotein”.
